Data published in paper PMC6934184, “Selective DNA-PKcs inhibition extends the therapeutic index of localized radiotherapy and chemotherapy” (The Journal of Clinical Investigation, 2019).

Biological target: T1, LRRK2 I2020T (Homo sapiens, UniProt Q5S007, I2020T)
T1 construct: purchased Thermo Fisher Scientific (Life Technologies) SelectScreen
Assay: SelectScreen Adapta
Format: biochemical
Outline: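 SelectScreen broad panel; activity (Z'LYTE, Adapta) plus binding formats. ATP: Km app for CSF1R Z'LYTE; 10 for CAMK1 Adapta. Readout = % per kinase.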

T1 sequence (Q5S007 whole entry I2020T): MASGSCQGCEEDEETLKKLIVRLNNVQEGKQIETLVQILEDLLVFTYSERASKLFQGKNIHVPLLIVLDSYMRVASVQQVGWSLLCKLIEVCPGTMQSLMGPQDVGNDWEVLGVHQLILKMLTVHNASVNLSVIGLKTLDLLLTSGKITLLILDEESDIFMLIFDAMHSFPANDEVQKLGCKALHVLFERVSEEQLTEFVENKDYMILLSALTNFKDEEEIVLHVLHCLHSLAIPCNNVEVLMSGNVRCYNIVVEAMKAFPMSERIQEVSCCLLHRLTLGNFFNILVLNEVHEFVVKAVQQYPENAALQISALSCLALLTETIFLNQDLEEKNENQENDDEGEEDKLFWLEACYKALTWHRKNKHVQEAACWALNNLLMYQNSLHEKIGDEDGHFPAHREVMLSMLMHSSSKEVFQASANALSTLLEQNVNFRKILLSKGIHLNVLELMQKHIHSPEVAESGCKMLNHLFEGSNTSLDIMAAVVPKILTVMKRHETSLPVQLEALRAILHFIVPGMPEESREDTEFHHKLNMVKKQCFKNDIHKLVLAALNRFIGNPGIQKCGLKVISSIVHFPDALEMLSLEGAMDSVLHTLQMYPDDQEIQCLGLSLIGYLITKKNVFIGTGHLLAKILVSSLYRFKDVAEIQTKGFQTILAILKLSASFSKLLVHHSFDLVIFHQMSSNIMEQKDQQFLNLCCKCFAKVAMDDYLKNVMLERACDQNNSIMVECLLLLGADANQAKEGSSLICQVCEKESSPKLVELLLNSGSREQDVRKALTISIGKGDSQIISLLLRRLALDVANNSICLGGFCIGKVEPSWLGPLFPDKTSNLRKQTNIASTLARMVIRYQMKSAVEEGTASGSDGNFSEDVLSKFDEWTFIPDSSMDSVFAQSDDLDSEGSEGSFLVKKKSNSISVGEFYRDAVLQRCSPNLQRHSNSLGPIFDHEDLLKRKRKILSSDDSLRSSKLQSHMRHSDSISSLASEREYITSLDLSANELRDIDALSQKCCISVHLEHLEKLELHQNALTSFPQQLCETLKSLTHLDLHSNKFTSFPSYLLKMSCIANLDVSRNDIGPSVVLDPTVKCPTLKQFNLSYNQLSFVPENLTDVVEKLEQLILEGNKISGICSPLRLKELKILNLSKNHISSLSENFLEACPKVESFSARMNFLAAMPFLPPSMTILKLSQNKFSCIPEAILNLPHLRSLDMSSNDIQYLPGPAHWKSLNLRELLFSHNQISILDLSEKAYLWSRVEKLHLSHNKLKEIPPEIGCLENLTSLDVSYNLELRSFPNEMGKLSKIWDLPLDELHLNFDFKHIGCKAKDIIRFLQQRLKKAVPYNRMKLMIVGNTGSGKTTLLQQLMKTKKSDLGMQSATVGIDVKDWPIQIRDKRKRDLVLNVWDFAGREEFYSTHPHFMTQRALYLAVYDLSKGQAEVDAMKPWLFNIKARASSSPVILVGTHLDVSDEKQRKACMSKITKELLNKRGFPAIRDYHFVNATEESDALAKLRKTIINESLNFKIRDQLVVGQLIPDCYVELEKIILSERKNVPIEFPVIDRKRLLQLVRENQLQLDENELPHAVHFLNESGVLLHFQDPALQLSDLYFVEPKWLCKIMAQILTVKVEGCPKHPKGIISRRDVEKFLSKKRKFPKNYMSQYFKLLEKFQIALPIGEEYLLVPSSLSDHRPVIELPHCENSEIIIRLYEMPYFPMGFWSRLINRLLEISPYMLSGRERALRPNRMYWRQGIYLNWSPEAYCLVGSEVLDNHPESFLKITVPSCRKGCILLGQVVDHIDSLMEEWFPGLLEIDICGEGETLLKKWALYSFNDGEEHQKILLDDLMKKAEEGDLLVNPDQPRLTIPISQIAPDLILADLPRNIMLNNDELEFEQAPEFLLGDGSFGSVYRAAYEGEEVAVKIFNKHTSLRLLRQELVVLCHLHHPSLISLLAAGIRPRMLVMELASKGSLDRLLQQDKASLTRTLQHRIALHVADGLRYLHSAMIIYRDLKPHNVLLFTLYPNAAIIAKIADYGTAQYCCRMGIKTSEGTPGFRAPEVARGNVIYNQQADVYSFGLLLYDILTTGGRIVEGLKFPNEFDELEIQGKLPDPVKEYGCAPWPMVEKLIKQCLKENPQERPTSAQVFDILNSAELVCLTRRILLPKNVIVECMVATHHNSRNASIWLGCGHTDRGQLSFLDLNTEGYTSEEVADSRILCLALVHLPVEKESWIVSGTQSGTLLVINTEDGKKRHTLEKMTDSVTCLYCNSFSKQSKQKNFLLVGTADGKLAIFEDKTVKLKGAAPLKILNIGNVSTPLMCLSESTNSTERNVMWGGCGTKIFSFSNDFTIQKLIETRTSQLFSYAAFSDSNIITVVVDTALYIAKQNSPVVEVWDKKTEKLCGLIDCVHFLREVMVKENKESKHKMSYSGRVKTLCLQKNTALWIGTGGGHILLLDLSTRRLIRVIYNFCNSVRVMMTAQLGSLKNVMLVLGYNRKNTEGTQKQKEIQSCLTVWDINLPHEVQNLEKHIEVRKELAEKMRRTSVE

CN(C(=O)CN1CCOCC1)c1ccc2sc3c(-c4cccc5c(=O)cc(N6CC7CCC(C6)O7)oc45)cccc3c2c1 [NU5455]
inhibition at 1 µM: -4%
